These results are taken from ChEMBL document CHEMBL3507680, “University of Dundee, Gates Library screen for HepG2 cell viability”.

Molecules are shown by their SMILES.

The nature of the data set: Human HepG2 cell viability assay in 384 well format. The data set is classed as toxicity, cell-based. The arrangement: dose 125 nL, time 70.5 hour; cytotoxicity at 70.5 h: concentration not given beside the values. The conditions noted are these: HepG2 cells, read-out: Inhibition.
In the case of `CSc1cc(CNC(=O)CCOc2ccccc2C)ccn1`, the cytotoxicity at 70.5 h is -7.07%. For `CC1=N[C@@]2(CC[C@@H]3CN(CC(=O)N(C)C)C[C@@H]32)C(=O)N1CC(C)C`, the cytotoxicity at 70.5 h is 52.3%. Next, `CCCC(=O)N1CCCCC1c1nccc(C)n1` (stereo not given): 8.32%; `CC(Cn1cccn1)NC(=O)NCCCN1CCCCCC1=O` (stereo not given): 0.306%.

As to `CC(Cn1cccn1)n1cnc2cccc(Cl)c2c1=O` (stereo not given), the cytotoxicity at 70.5 h was determined as 7.81%. The figure for `CC(C)C1=NOC2(CCN(Cc3c[nH]c4ccccc34)CC2)C1` is 4.04%; for `CC(=O)c1ccc(N2CCCC(CO)(CCc3ccccc3)C2)nc1` (stereo not given) it is -1.42%.

In the case of `Cn1cncc1CN1CCc2nc3sccc3c(=O)n2CC1`, the cytotoxicity at 70.5 h was -19.1%. Next, `Cc1ccc(CN2CCc3c(COCC4CC4)nn(C)c3C2)s1`: 21.5%. In the case of `c1ccc(CCCC2CN(Cc3ncc[nH]3)CCO2)cc1` (stereo not given), the cytotoxicity at 70.5 h was -6.86%. Next, `Cc1cccc(C(=O)N(CC(=O)O)CC(C)C)c1`: 11.7%; `C1CN(c2nc(C3CC3)no2)CCN(C2CCOCC2)C1`: -0.117%. Next, `Cc1ccc(S(=O)(=O)NC2CC2)cc1C`: -5.86%; `CC(=O)N1CCN(C(=O)NC(C)C)CC2(CC(=O)N(C)C2)C1` (stereo not given): -13.5%; `CS(=O)(=O)N1CCC(C(=O)N2CCOc3ccccc32)CC1`: -5.71%. As to `F[C@@H]1CN(CC2CC2)C[C@@H]1OCc1nc2cnccc2[nH]1`, the cytotoxicity at 70.5 h was -0.16%.

For `CNc1cc(C)nc(N2CCN(Cc3ccccc3)CC(O)C2)n1` (stereo not given), the cytotoxicity at 70.5 h was -0.369%. Take `COc1cccc2c1OCC(CNC(=O)CCn1cnnn1)C2` (stereo not given): the cytotoxicity at 70.5 h was -1.24%. Regarding `CCOCC(O)CN1CCN(C(=O)c2ccnc(N(C)C)c2)CC1` (stereo not given), the cytotoxicity at 70.5 h was -6.8%. The figure for `CN(CC(=O)NCC1CCCO1)Cc1nc2c(s1)CCCC2` (stereo not given) is 25.9%; for `CN1CCN(C2CCN(CCOc3cccc(F)c3)CC2)C1=O` it is -13%; for `Cc1nc(CN2C(=O)C[C@@H]3[C@@H]2CCN3S(C)(=O)=O)cs1` it is -4.41%.

For the compound `O=S1(=O)CCN(Cc2cccnc2)[C@H]2CCN(c3ncccn3)CC[C@H]21`, the cytotoxicity at 70.5 h is 19.6%. Next, `O=C(CCc1cccc(C2CCNCC2)n1)N1CCCCC1`: -12.2%; `Cc1cc(CC(=O)NCc2ccnc(OCC(F)(F)F)c2)no1`: 34%. Next, `Cc1nnc2sc(-c3cc(C(C)C)n[nH]3)nn12`: -4.97%; `Cc1noc(C(C)Nc2ccc3oc(=O)[nH]c3c2)n1` (stereo not given): -0.467%. The figure for `CCCN(CC1CC1)S(=O)(=O)c1ccc(NC(C)=O)cc1` is -1.65%; for `CCCc1nc(CN(CC)Cc2ccoc2)no1` it is -7.87%; for `NC(=O)c1c(SCCN2CCCCC2)sc2c(O)cc(=O)[nH]c12` it is -7.79%. For `Cc1ccc(OCC(=O)N2CCCC(n3nc(C)nc3C)C2)cc1` (stereo not given), the cytotoxicity at 70.5 h was -8.6%. Take `OC1(CNC2CCN(Cc3ccncc3)CC2)CCc2ccccc21` (stereo not given): the cytotoxicity at 70.5 h was -5.39%.

For `Cc1ccc(C(=O)Nc2nnc(CC(C)C)s2)c(-n2cnnn2)c1C`, the cytotoxicity at 70.5 h is 29.7%. For `Cc1ccc(CNC(=O)c2ccc(=O)n(C)n2)c(OCC2CC2)c1`, the cytotoxicity at 70.5 h was -4.46%.

For the compound `Cc1noc(C)c1C(=O)NCC(c1cccc(F)c1)N(C)C` (stereo not given), the cytotoxicity at 70.5 h was -4.95%.

`CCc1n[nH]c(=O)c(C(=O)N2CCSC(C)(C)C2)c1CC`: the cytotoxicity at 70.5 h is -10.1%. Consider `CCSCc1cccc(NC(=O)N(C)Cc2ncnn2C)c1`, for which the cytotoxicity at 70.5 h was -3.07%. As for `Nc1cc(CCCNC(=O)NC2CC2)nn1-c1ccccc1`, the cytotoxicity at 70.5 h is -2.83%.

Turning to `CCc1ncc2c(n1)CN(Cc1cccc(OCC(N)=O)c1)CC2`, the cytotoxicity at 70.5 h worked out at 1.32%. For `OCC(CO)Nc1ccc2ccc(Cl)c(Cl)c2n1`, the cytotoxicity at 70.5 h was determined as 19.4%.

For `CN(Cc1nccn1C)C1CCCN(CCCc2ccccc2)C1` (stereo not given), the cytotoxicity at 70.5 h was -6.62%. The figure for `CC(=O)NCC1CCN(c2ccnc3ccc(Br)cc23)CC1` is -2.63%; for `CSc1nccc(N2CCC3(CCCN(CC4CC4)C3)C2)n1` (stereo not given) it is -3.08%; for `C[C@@H]1CN(C(=O)C2(N3CCCCC3)Cc3ccccc3C2)C[C@H](C)O1` it is -9%. Next, `CCc1ncc(CN2CCC(O)(c3ccccc3F)CC2)cn1`: -4.61%. The figure for `O=C(O)Cn1ccc(=O)c2cc(F)ccc21` is -10.1%; for `Cc1cnn(CCNCc2cc(C#N)ccc2F)c1` it is 18.7%; for `CN(C)C1CCCN(Cc2cccc(Cn3cccn3)c2)CC1` (stereo not given) it is -1.58%.

With `CN(C)Cc1ccccc1CN(C)C(=O)c1ccoc1`, the cytotoxicity at 70.5 h was -8.04%.

As to `Cc1noc(CN2CCN(C(=O)c3ccccn3)CC2)n1`, the cytotoxicity at 70.5 h is -8.75%.

With `CC(C)n1ccnc1C1CCN(C(=O)c2cc[nH]n2)CC1`, the cytotoxicity at 70.5 h is -10.9%.

Consider `Cc1nc(C)c(CC(=O)N2C[C@H]3CC[C@@H]2CN(C(=O)N(C)C)C3)c(=O)[nH]1`, for which the cytotoxicity at 70.5 h was 15.9%. As for `O=C(c1cnccn1)N1CCO[C@H]2[C@H](OCc3cccnc3)CC[C@@H]21`, the cytotoxicity at 70.5 h was -6.93%. Turning to `Cc1nsc(NC(=O)N2CCN(Cc3ccc(F)cc3)C(=O)C2)n1`, the cytotoxicity at 70.5 h is -13.5%. The figure for `CN1[C@H](Cn2cccn2)C[C@@H]2CN(Cc3cccs3)CC[C@@H]21` is 18.9%.

As to `Cc1cc(CCC2CN(Cc3ccccc3C(=O)O)CCO2)ncn1` (stereo not given), the cytotoxicity at 70.5 h is -3.08%.

Consider `Cc1nn(C)c(C)c1OCC(=O)NCC(O)c1ccco1` (stereo not given), for which the cytotoxicity at 70.5 h came to 16%.

As to `CC(C)NC(=O)N1CCCC(c2nnc(CN3CCOCC3)n2C)C1` (stereo not given), the cytotoxicity at 70.5 h is -10.9%. The figure for `CN(C(=O)c1ccc[nH]1)C1CCC(NC(=O)OC(C)(C)C)CC1` (stereo not given) is -17.5%; for `FC(F)(F)C1CCCn2c(CNCc3cccs3)nnc21` (stereo not given) it is -7.88%; for `Cc1cccc(N2CCC(N3CCC4(CCCNC4=O)C3)CC2)c1C` (stereo not given) it is 10.3%.

As for `COc1cc(CNC(=O)c2csc(Br)c2)ccn1`, the cytotoxicity at 70.5 h was -12.9%.

As for `Cc1ccc(CNc2nc(O)cc(C3CC(=O)N(C)C3)n2)cc1` (stereo not given), the cytotoxicity at 70.5 h was -4.28%. Take `Cc1ccc(CN2CCc3ncnc(OC(C)C)c3CC2)s1`: the cytotoxicity at 70.5 h was -6.82%. Next, `CCOc1ccc2[nH]c(=O)c(CN(C)CCc3cn[nH]c3)cc2c1`: 4.91%; `COc1ccc(CN2C[C@@H]3[C@H](CC(=O)N4CCCC4)[C@@H]3C2)cc1`: -9.32%. Take `CC(C)c1ccc(CN2CCC(CNS(=O)(=O)C3CC3)C2)cc1` (stereo not given): the cytotoxicity at 70.5 h was -3.87%. For the compound `CC(C)c1nc(CN(C)CC2CCN(CCO)CC2)no1`, the cytotoxicity at 70.5 h was -5.69%. Next, `Cc1noc(C)c1C(=O)NCc1ccc(N2CCCCCC2)nc1`: -6.77%.

For `O=C1[C@H]2CC[C@H](CN(Cc3nnc(C4CC4)o3)C2)N1Cc1cscn1`, the cytotoxicity at 70.5 h came to 18.5%. The figure for `CN1CCOC(CNCc2cccc(OCc3ccccn3)c2)C1` (stereo not given) is -3.38%. The figure for `CC(NC(=O)N1CCc2ccccc2C1)c1nncn1C` (stereo not given) is -13.5%.

For `COCCN1CCC2(CCCN(c3ncc(F)cn3)C2)C1` (stereo not given), the cytotoxicity at 70.5 h was -3.02%. Next, `O=C1CC[C@@H]2[C@@H](CCN2S(=O)(=O)C2CC2)N1CC1CC1`: 18.2%. Next, `CCOC1CC2(CCN(C(C)=O)CC2)c2cc(F)ccc21` (stereo not given): -3.98%; `Cc1cnccc1CN1Cc2ccccc2O[C@]2(CC[C@H](CO)CC2)C1`: 15.1%. The figure for `Cc1ccc(C(=O)N2CC(=O)N(Cc3cccs3)CC(O)C2)cc1` (stereo not given) is -0.413%; for `Cc1nn(C)c(C)c1OCC(=O)N1CCCc2c(F)ccc(F)c21` it is 18.1%. As to `CC(C)c1nc(CN2CCCC2CN2CCCC2)cs1` (stereo not given), the cytotoxicity at 70.5 h was -7.95%. The figure for `Cn1cc(NS(=O)(=O)CC2CCCCO2)cn1` (stereo not given) is -8.18%; for `Cc1cccnc1CNC[C@H]1Cn2cc(-c3ccccc3)nc2CO1` it is -6.83%. The figure for `CCOC(=O)N1CCN(C(=O)c2sc(-c3ccc(F)cc3)nc2C)CC1` is -8.29%; for `CC(C)NC(=O)N1CC[C@@H](N(C)C)[C@@H]1Cc1ccccc1` it is -10.3%. As to `Cc1cccc(Cn2ccc(NS(C)(=O)=O)n2)c1`, the cytotoxicity at 70.5 h was -4.99%. Take `Cc1cccc(OCCC(=O)NC(C)c2nnc3n2CCC3)c1` (stereo not given): the cytotoxicity at 70.5 h came out at 2.23%. For the compound `Fc1ccccc1-c1nnn(CCCc2nn[nH]n2)n1`, the cytotoxicity at 70.5 h was -5.54%.

On to `CC(C)NS(=O)(=O)c1cc(C(=O)O)cc(-c2ccc3c(c2)OCCO3)c1`, for which the cytotoxicity at 70.5 h was -8.82%. The figure for `CN1CCC/C1=N\S(=O)(=O)c1ccc(NC(=O)CCc2cccs2)cc1` is -1.04%; for `NC(=O)CN1CCCC(Cc2ccc(N)nn2)C1` (stereo not given) it is 36.2%. Next, `CC(C)NC1CCCc2nc(-c3ccccc3)ncc21` (stereo not given): -14.3%; `N#Cc1ccnc(N2CCN(Cc3cccc(F)c3)CC2)c1`: -6.08%. Next, `CCc1nc(CN2CCCC2C(=O)NC2CC2)cs1` (stereo not given): -7.43%; `CC(CNC(=O)c1cnccn1)Oc1ccc(F)cc1` (stereo not given): -8.73%. On to `COCCOc1ccnc(-c2noc([C@@H]3CCCN3C3CCC3)n2)c1`, for which the cytotoxicity at 70.5 h is -5.26%.

With `NC(=O)CN1CCCCC1c1nc(N)ncc1-c1cccc(F)c1` (stereo not given), the cytotoxicity at 70.5 h was -4.69%. Next, `Cc1ccc(NC2(C(=O)NCCCN)CCCC2)cc1`: -8.06%; `CC(=O)NCCc1ccc(S(=O)(=O)Nc2cc(F)ccc2C)s1`: 3.63%; `CN(Cc1ccc2nsnc2c1)CC1(O)CCNC1` (stereo not given): -5.93%. As to `COc1c(C2CCCN2C(=O)c2c[nH]c3ncccc23)c(C)nn1C` (stereo not given), the cytotoxicity at 70.5 h was -5.62%. In the case of `CCc1sc(-c2nnc(CNCCn3cc(C)cn3)o2)cc1C`, the cytotoxicity at 70.5 h was -1.42%.
